Drawing on patent US11021467B2, “Phosphatidylinositol 3-kinase inhibitors” (Gilead Sciences, Inc., priority 2014, dated 2021), this text covers IC50 and PI3Kγ/PI3Kβ ratio for 24 molecules.

Molecules are shown by their SMILES.

Common to all, as to test: TR-FRET enzymatic activity assay against PI3K isoforms
Holding throughout (assay type): biochemical
On the technique in general: In TR-FRET formats the signal depends on donor and acceptor labels being close together.

For one assay, the target named is PI3Kβ (Homo sapiens (Human), UniProt P42338). Particulars: for IC50: PI3Kβ, TR-FRET, 2×Km ATP, 30 minutes at 25° C. The source says:
(§1) The compounds of formula (I) were characterized for their enzymatic activity against the PI3K isoforms. […] TR-FRET monitored the formation of 3,4,5-inositol triphosphate molecule that competed with fluorescently labeled PIP3 for binding to the GRP-1 pleckstrin homology domain protein.

In a further assay the target is PI3Kδ (Homo sapiens (Human), UniProt O00329). Particulars: 2×Km ATP, 30 minutes at 25° C.
Source text: as §1

A further assay addresses PI3Kγ (Homo sapiens (Human), UniProt P48736). Particulars: 2×Km ATP, 30 minutes at 25° C.
Source text: as §1

Sequence of PI3Kγ (P48736 whole entry): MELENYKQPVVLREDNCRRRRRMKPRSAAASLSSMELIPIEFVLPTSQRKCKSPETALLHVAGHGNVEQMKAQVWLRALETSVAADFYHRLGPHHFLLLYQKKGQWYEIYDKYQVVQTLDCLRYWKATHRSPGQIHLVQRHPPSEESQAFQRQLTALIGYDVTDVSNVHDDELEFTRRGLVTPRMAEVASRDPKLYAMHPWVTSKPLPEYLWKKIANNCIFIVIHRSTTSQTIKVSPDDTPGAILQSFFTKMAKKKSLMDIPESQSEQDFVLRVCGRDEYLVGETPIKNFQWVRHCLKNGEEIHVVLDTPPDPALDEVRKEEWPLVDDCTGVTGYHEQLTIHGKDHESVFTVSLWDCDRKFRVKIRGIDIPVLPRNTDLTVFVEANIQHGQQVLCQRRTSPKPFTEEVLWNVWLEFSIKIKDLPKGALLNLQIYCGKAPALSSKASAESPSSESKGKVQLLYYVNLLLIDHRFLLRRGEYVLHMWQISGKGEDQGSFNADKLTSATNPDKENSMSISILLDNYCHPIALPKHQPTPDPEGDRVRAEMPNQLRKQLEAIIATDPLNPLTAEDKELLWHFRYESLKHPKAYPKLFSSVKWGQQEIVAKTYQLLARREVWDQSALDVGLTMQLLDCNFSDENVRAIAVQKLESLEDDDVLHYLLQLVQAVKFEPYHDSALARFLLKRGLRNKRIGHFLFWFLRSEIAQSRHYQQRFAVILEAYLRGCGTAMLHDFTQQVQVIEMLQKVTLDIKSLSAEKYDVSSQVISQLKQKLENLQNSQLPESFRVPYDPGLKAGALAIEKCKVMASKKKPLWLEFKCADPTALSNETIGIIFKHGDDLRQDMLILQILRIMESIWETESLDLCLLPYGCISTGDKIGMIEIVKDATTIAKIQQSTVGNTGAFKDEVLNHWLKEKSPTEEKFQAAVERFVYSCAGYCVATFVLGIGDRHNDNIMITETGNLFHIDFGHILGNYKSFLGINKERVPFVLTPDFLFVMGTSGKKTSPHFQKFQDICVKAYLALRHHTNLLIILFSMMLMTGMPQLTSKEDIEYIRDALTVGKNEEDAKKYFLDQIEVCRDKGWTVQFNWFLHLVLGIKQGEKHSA
Sequence of PI3Kβ (P42338 whole entry, the tested form may be a part, canonical isoform): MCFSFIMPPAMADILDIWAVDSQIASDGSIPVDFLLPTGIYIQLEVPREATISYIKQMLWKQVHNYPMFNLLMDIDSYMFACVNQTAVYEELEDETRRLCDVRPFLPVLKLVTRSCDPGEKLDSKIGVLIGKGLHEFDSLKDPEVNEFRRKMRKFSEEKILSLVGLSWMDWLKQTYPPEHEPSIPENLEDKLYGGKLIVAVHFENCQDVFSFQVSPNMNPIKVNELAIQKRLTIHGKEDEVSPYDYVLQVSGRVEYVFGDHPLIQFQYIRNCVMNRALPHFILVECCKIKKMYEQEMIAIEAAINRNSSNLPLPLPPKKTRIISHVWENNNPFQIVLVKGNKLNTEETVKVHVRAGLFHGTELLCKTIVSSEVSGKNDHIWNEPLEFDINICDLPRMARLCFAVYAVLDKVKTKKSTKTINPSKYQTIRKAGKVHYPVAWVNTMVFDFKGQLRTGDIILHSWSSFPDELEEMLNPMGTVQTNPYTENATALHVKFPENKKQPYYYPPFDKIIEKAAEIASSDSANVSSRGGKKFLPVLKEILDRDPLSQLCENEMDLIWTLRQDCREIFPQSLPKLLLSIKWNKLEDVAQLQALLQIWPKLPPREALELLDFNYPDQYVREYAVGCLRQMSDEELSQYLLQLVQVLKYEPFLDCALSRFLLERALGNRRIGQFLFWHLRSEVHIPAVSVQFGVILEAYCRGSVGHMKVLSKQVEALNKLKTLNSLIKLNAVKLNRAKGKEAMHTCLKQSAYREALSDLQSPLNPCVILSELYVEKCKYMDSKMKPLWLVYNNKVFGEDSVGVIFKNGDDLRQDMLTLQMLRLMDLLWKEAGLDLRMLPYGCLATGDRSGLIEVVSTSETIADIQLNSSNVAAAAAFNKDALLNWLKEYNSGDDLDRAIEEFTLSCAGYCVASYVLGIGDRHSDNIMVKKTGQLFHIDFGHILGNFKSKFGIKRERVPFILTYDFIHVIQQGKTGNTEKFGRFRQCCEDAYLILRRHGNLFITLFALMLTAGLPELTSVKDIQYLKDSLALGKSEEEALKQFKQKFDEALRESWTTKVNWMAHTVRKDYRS
Sequence of PI3Kβ (P27986 whole entry partner, the tested form may be a part, canonical isoform): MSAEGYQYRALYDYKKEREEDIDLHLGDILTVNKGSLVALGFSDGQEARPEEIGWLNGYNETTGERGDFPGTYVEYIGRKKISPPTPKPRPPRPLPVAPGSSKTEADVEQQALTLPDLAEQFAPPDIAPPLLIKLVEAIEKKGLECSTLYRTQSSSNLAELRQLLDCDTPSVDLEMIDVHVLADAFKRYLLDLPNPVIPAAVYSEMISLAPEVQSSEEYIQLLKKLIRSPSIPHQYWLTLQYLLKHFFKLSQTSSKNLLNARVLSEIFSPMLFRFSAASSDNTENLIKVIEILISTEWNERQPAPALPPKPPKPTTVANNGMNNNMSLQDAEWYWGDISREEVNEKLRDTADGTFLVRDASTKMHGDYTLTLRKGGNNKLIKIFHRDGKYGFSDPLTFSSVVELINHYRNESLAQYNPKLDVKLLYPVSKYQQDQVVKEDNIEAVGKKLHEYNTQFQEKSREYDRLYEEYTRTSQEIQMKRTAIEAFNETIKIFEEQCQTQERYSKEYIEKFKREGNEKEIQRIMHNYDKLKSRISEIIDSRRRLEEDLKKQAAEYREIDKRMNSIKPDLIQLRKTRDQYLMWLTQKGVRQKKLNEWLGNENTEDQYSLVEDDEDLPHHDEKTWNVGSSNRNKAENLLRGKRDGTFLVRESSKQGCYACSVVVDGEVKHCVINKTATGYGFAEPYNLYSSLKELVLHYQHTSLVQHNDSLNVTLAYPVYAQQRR
Sequence of PI3Kδ (O00329 whole entry): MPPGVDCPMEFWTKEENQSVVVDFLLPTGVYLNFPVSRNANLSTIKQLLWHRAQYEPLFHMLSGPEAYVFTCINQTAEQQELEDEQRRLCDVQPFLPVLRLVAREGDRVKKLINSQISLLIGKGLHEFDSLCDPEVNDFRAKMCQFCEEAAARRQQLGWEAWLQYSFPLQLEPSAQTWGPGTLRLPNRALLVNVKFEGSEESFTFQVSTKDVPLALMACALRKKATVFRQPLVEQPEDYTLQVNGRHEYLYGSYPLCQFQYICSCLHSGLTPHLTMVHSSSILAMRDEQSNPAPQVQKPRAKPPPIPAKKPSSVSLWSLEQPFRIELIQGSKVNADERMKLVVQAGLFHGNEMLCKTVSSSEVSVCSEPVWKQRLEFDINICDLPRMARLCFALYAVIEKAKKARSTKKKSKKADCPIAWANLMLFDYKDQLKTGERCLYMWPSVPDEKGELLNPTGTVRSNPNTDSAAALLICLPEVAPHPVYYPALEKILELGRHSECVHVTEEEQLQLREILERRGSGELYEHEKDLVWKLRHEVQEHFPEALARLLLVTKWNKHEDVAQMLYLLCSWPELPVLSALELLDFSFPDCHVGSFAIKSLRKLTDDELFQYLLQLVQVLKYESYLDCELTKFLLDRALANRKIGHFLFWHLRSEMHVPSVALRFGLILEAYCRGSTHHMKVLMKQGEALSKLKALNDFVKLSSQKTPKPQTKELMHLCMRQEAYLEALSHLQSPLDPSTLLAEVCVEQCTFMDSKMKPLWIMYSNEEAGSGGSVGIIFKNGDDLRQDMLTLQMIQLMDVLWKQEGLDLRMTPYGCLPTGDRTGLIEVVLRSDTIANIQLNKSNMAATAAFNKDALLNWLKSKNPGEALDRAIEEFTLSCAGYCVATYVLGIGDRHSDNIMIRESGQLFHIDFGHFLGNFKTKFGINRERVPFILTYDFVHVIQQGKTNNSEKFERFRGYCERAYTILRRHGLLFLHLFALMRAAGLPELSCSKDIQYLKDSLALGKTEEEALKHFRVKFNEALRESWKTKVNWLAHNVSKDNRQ
Sequence of PI3Kδ (P27986 whole entry partner): as the sequence (P27986 whole entry partner, the tested form may be a part, canonical isoform) above

Regarding `CC(CCN)n1c([C@H](C)Nc2ncnc(N)c2C#N)nc2cccc(Cl)c2c1=O` (stereo partly drawn) [Compound 24, 4-amino-6-(((1S)-1-(3-(4-aminobutan-2-yl)-5-chloro-4-oxo-3,4-dihydroquinazolin-2-yl)ethyl)amino)pyrimidine-5-carbonitrile], the IC50 (usually the concentration that gives 50% inhibition) against PI3Kβ is 0.051 µM; against PI3Kδ, 0.006 µM; on PI3Kγ, no less than 10 µM.

Regarding `CC(CN)n1c([C@H](C)Nc2ncnc(N)c2C#N)nc2cccc(Cl)c2c1=O` (stereo partly drawn) [Compound 25, 4-amino-6-(((1S)-1-(3-(1-aminopropan-2-yl)-5-chloro-4-oxo-3,4-dihydroquinazolin-2-yl)ethyl)amino)pyrimidine-5-carbonitrile], the IC50 against PI3Kβ is 1.3 µM; against PI3Kδ, 0.1 µM; on PI3Kγ it was no less than 10 µM.

For the molecule `C[C@H](Nc1ncnc(N)c1C#N)c1nc2cccc(Cl)c2c(=O)n1CCN` [Compound 26, (S)-4-amino-6-((1-(3-(2-aminoethyl)-5-chloro-4-oxo-3,4-dihydroquinazolin-2-yl)ethyl)amino)pyrimidine-5-carbonitrile], the figures for the IC50 against PI3Kβ, against PI3Kδ and on PI3Kγ were 0.74 µM, 0.15 µM and no less than 10 µM, respectively.

Consider `CC(CN)Cn1c([C@H](C)Nc2ncnc(N)c2C#N)nc2cccc(Cl)c2c1=O` (stereo partly drawn) [Compound 27, 4-amino-6-(((1S)-1-(3-(3-amino-2-methylpropyl)-5-chloro-4-oxo-3,4-dihydroquinazolin-2-yl)ethyl)amino)pyrimidine-5-carbonitrile], for which the IC50 was 0.2 µM against PI3Kβ, 0.007 µM at PI3Kδ and no less than 10 µM against PI3Kγ.

With `C[C@H](Nc1ncnc(N)c1C#N)c1nc2cccc(Cl)c2c(=O)n1CCCCN` [Compound 28, (S)-4-amino-6-((1-(3-(4-aminobutyl)-5-chloro-4-oxo-3,4-dihydroquinazolin-2-yl)ethyl)amino)pyrimidine-5-carbonitrile], the values for the IC50 at PI3Kβ, against PI3Kδ and on PI3Kγ were 0.1 µM, 0.003 µM and no less than 10 µM, respectively.

Take `Cc1cccc2nc([C@H](C)Nc3ncnc(N)c3C#N)n(CCCN)c(=O)c12` [Compound 29, (S)-4-amino-6-((1-(3-(3-aminopropyl)-5-methyl-4-oxo-3,4-dihydroquinazolin-2-yl)ethyl)amino)pyrimidine-5-carbonitrile]: the IC50 against PI3Kβ was 0.047 µM; on PI3Kδ it was 0.007 µM; at PI3Kγ it was no less than 10 µM.

Regarding `C[C@H](Nc1ncnc(N)c1Cl)c1nc2cccc(Cl)c2c(=O)n1CCCN` [Compound 30, (S)-2-(1-((6-amino-5-chloropyrimidin-4-yl)amino)ethyl)-3-(3-aminopropyl)-5-chloroquinazolin-4(3H)-one], the IC50 on PI3Kβ is 0.11 µM; against PI3Kδ, 0.011 µM; against PI3Kγ, no less than 10 µM.

In the case of `CNCCCn1c([C@H](C)Nc2ncnc(N)c2C#N)nc2cccc(Cl)c2c1=O` [Compound 31, (S)-4-amino-6-((1-(5-chloro-3-(3-(methylamino)propyl)-4-oxo-3,4-dihydroquinazolin-2-yl)ethyl)amino)pyrimidine-5-carbonitrile], the IC50 is 0.047 µM on PI3Kβ, 0.006 µM at PI3Kδ and no less than 10 µM against PI3Kγ.

For `C[C@H](NC(=O)c1c(N)nn2cccnc12)c1nc2cccc(Cl)c2c(=O)n1CCCN` [Compound 32, (S)-2-amino-N-(1-(3-(3-aminopropyl)-5-chloro-4-oxo-3,4-dihydroquinazolin-2-yl)ethyl)pyrazolo[1,5-a]pyrimidine-3-carboxamide], the concentration for half-maximal inhibition (IC50) stood at 0.044 µM on PI3Kβ, 0.092 µM at PI3Kδ and 3.2 µM at PI3Kγ.

With `CC(C)C[C@H](Nc1ncnc(N)c1C#N)c1nc2cccc(Cl)c2c(=O)n1CCCN` [Compound 33, (S)-4-amino-6-((1-(3-(3-aminopropyl)-5-chloro-4-oxo-3,4-dihydroquinazolin-2-yl)-3-methylbutyl)amino)pyrimidine-5-carbonitrile], the figures for the half-inhibitory concentration (IC50) at PI3Kβ, against PI3Kδ and against PI3Kγ were 2.1 µM, 0.21 µM and no less than 10 µM, respectively.

For the molecule `CC[C@H](Nc1ncnc(N)c1C#N)c1nc2cccc(Cl)c2c(=O)n1CCCN` [Compound 34, (S)-4-amino-6-((1-(3-(3-aminopropyl)-5-chloro-4-oxo-3,4-dihydroquinazolin-2-yl)propyl)amino)pyrimidine-5-carbonitrile], the IC50 on PI3Kβ was 0.25 µM; at PI3Kδ, 0.079 µM; on PI3Kγ it was no less than 10 µM.

With `NCCCn1c([C@@H](Nc2ncnn3ccnc23)C2CC2)nc2cccc(Cl)c2c1=O` [Compound 35, (S)-3-(3-aminopropyl)-5-chloro-2-(cyclopropyl(imidazo[2,1-][1,2,4]triazin-4-ylamino)methyl)quinazolin-4(3H)-one], the 50% inhibitory concentration (IC50) on PI3Kβ was 0.11 µM; against PI3Kδ, 0.021 µM; on PI3Kγ, no less than 10 µM.

As for `CC[C@H](Nc1nc(N)nc(N)c1C#N)c1nc2cccc(Cl)c2c(=O)n1CCCN` [Compound 36, (S)-2,4-diamino-6-((1-(3-(3-aminopropyl)-5-chloro-4-oxo-3,4-dihydroquinazolin-2-yl)propyl)amino)pyrimidine-5-carbonitrile], the IC50 was 0.071 µM against PI3Kβ, 0.027 µM on PI3Kδ and 8.2 µM on PI3Kγ.

As for `NCCCn1c([C@@H](Nc2ncnc3cccnc23)C2CC2)nc2cccc(Cl)c2c1=O` [Compound 37, (S)-3-(3-aminopropyl)-5-chloro-2-(cyclopropyl(pyrido[3,2-d]pyrimidin-4-ylamino)methyl)quinazolin-4(3H)-one], the results for the IC50 at PI3Kβ, on PI3Kδ and against PI3Kγ were 0.057 µM, 0.016 µM and 4.8 µM, respectively.

As to `NCCCn1c([C@@H](Nc2nc(N)nc(N)c2Cl)C2CC2)nc2cccc(Cl)c2c1=O` [Compound 38, (S)-3-(3-aminopropyl)-5-chloro-2-(cyclopropyl((2,6-diamino-5-chloropyrimidin-4-yl)amino)methyl)quinazolin-4(3H)-one], the IC50 was 0.044 µM on PI3Kβ, 0.012 µM at PI3Kδ and no less than 10 µM at PI3Kγ.

`CNCCCn1c([C@H](C)Nc2nc(N)nc(N)c2C#N)nc2cccc(Cl)c2c1=O` [Compound 39, (S)-2,4-diamino-6-((1-(5-chloro-3-(3-(methylamino)propyl)-4-oxo-3,4-dihydroquinazolin-2-yl)ethyl)amino)pyrimidine-5-carbonitrile]: the IC50 at PI3Kβ came out at 0.025 µM; against PI3Kδ, 0.003 µM; against PI3Kγ, 2.4 µM.

As to `N#Cc1c(N)ncnc1N[C@H](c1nc2cccc(Cl)c2c(=O)n1CCCN)C1CC1` [Compound 40, (S)-4-amino-6-(((3-(3-aminopropyl)-5-chloro-4-oxo-3,4-dihydroquinazolin-2-yl)(cyclopropyl)methyl)amino)pyrimidine-5-carbonitrile], the IC50 is 0.021 µM against PI3Kβ, 0.009 µM at PI3Kδ and no less than 10 µM on PI3Kγ.

For the molecule `CNCCCn1c([C@H](C)Nc2nc(N)nc(C)c2C#N)nc2cccc(Cl)c2c1=O` [Compound 41, (S)-2-amino-4-((1-(5-chloro-3-(3-(methylamino)propyl)-4-oxo-3,4-dihydroquinazolin-2-yl)ethyl)amino)-6-methylpyrimidine-5-carbonitrile], the values for the IC50 against PI3Kβ, on PI3Kδ and against PI3Kγ were 0.015 µM, 0.003 µM and 1.8 µM, respectively.

Turning to `C[C@H](Nc1nc(N)nc(N)c1C#N)c1nc2cccc(Cl)c2c(=O)n1CCCN` [Compound 42, (S)-2,4-diamino-6-((1-(3-(3-aminopropyl)-5-chloro-4-oxo-3,4-dihydroquinazolin-2-yl)ethyl)amino)pyrimidine-5-carbonitrile], the IC50 against PI3Kβ worked out at 0.015 µM; against PI3Kδ, 0.002 µM; against PI3Kγ, 1.4 µM.

Consider `NCCCn1c([C@@H](Nc2ncnc3[nH]cc(Br)c23)C2CC2)nc2cccc(Cl)c2c1=O` [Compound 43, (S)-3-(3-aminopropyl)-2-(((5-bromo-7H-pyrrolo[2,3-d]pyrimidin-4-yl)amino)(cyclopropyl)methyl)-5-chloroquinazolin-4(3H)-one], for which the half-maximal inhibitory concentration (IC50) against PI3Kβ stood at 0.007 µM; on PI3Kδ it was 0.006 µM; at PI3Kγ, 3.4 µM.

`N#Cc1c(Cl)nc(N)nc1N[C@H](c1nc2cccc(Cl)c2c(=O)n1CCCN)C1CC1` [Compound 44, (S)-2-amino-4-(((3-(3-aminopropyl)-5-chloro-4-oxo-3,4-dihydroquinazolin-2-yl)(cyclopropyl)methyl)amino)-6-chloropyrimidine-5-carbonitrile]: the IC50 on PI3Kβ came out at 0.008 µM; against PI3Kδ, 0.011 µM; on PI3Kγ, 6 µM.

Consider `NCCCn1c([C@@H](Nc2ncnc3scnc23)C2CC2)nc2cccc(Cl)c2c1=O` [Compound 45, (S)-3-(3-aminopropyl)-5-chloro-2-(cyclopropyl(thiazolo[5,4-d]pyrimidin-7-ylamino)methyl)quinazolin-4(3H)-one], for which the half-maximal inhibitory concentration (IC50) on PI3Kβ came out at 0.007 µM; against PI3Kδ, 0.004 µM; against PI3Kγ, 2.1 µM.

For the molecule `CNCCCn1c([C@@H](Nc2nc(N)nc(N)c2C#N)C2CC2)nc2cccc(Cl)c2c1=O` [Compound 46, (S)-2,4-diamino-6-(((5-chloro-3-(3-(methylamino)propyl)-4-oxo-3,4-dihydroquinazolin-2-yl)(cyclopropyl)methyl)amino)pyrimidine-5-carbonitrile], the IC50 is 0.006 µM against PI3Kβ, 0.003 µM against PI3Kδ and 2.5 µM on PI3Kγ.

Turning to `N#Cc1c(N)nc(N)nc1N[C@H](c1nc2cccc(Cl)c2c(=O)n1CCCN)C1CC1` [Compound 47, (S)-2,4-diamino-6-(((3-(3-aminopropyl)-5-chloro-4-oxo-3,4-dihydroquinazolin-2-yl)(cyclopropyl)methyl)amino)pyrimidine-5-carbonitrile], the IC50 on PI3Kβ was 0.005 µM; on PI3Kδ, 0.003 µM; against PI3Kγ it was 1.1 µM. Moreover, the PI3Kγ/PI3Kβ ratio at PI3Kβ (ratio of IC50 values, selectivity for PI3Kβ over PI3Kγ) worked out at 230.
